Source: patent US20170281651A1, “CONCOMITANT ADMINISTRATION OF GLUCOCORTICOID RECEPTOR MODULATORS AND CYP3A OR STEROIDOGENESIS INHIBITORS” (Corcept Therapeutics, Inc., priority 2017, published 2017)

Assays:
[1] = Examples 4-7: liver function of a patient with excess cortisol switched to reduced mifepristone dose plus ketoconazole; format: in vivo, human
[2] = Example 3: safety (adverse events, laboratory tests, vital signs, ECG); format: in vivo, human
Protocol: A single dose of ketoconazole was administered on Day −1.

For `CC#C[C@]1(O)CC[C@H]2[C@@H]3CCC4=CC(=O)CCC4=C3[C@@H](c3ccc(N(C)C)cc3)C[C@@]21C` [mifepristone, 11β-(4-dimethylaminophenyl)-17β-hydroxy-17α-(1-propynyl)-estra-4,9-dien-3-one], the “liver function of the patient” value ([1]; daily dose reduced from 600 mg to 300 mg with concomitant ketoconazole) was “not significantly compromised”, the “liver function of the patient” value ([1]; daily dose reduced from 900 mg to 600 mg with concomitant ketoconazole) was “not significantly compromised” and the “liver function of the patient” value ([1]; daily dose reduced from 1200 mg to 900 mg with concomitant ketoconazole) was “not significantly compromised”. The “liver function of the patient” value ([1]; daily dose reduced from 1500 mg to 1200 mg with concomitant ketoconazole) was “not significantly compromised”, the “subjects reporting at least one TEAE” value ([2]; during the mifepristone/ketoconazole treatment period) was 57.1% and the “subjects reporting at least one TEAE” value ([2]; during treatment with mifepristone alone (600 mg once daily)) was 55.6%. The “subjects with elevated laboratory test results reported as drug-related TEAEs” value ([2]; liver enzymes (one subject), creatinine (two subjects), from Day 14) was “Three subjects”, the “effects on hematology or urinalysis parameters, vital signs, or ECGs” value ([2]; multiple-dose mifepristone with or without multiple-dose ketoconazole) was “No clinically significant effects” and the “deaths or SAEs” value ([2]; whole study) was “No deaths or SAEs”. For the same molecule, the “severe TEAEs” value ([2]; whole study) was “No severe TEAEs”.
